From PubChem BioAssay AID330 (DTP/NCI, 2004)
Several values for one entry are separate records, joined by “and”; a condition that tells them apart may be missing. Equal entries are not always repeated. Toxic doses and inconclusive results are not listed.

Test system: P388 leukemia ip, CD2F1 mice, survival T/C
Test: NCI In Vivo Anticancer Drug Screen. Data for tumor model P388 Leukemia (intraperitoneal) in CD2F1 (CDF1) mice
Settings: endpoint: median survival time, higher = longer survival
Summary of the method: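 Mice carrying the transplanted tumor received test compound or vehicle. Survival was recorded in each group, and the value is the treated-group measurement divided by that of the vehicle-treated control group.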

[1] = dose: 50.0 mg/kg/injection, schedule: Q01DX005 (ip), vehicle: Klucel (hydroxypropylcellulose) (HPC)
[2] = dose: 100.0 mg/kg/injection, schedule: Q01DX005 (ip), vehicle: Klucel (hydroxypropylcellulose) (HPC)
[3] = dose: 200.0 mg/kg/injection, schedule: Q01DX005 (ip), vehicle: Klucel (hydroxypropylcellulose) (HPC)
[4] = dose: 60.0 mg/kg/injection, schedule: Q01DX005 (ip), vehicle: saline with Tween-80
[5] = dose: 120.0 mg/kg/injection, schedule: Q01DX005 (ip), vehicle: saline with Tween-80

COc1ccc2nc3ccccc3c(NCCCCCCNc3c4ccccc4nc4ccc(OC)cc34)c2c1
T/C (dose: 0.62 mg/kg/injection, schedule: Q## X009 (ip), vehicle: lactic acid): 108 % of control | T/C (dose: 0.63 mg/kg/injection, schedule: Q01DX009 (ip), vehicle: other): 100 % of control | T/C (dose: 1.25 mg/kg/injection, schedule: Q01DX009 (ip), vehicle: other): 107 % of control | T/C (dose: 1.25 mg/kg/injection, schedule: Q## X009 (ip), vehicle: lactic acid): 111 % of control | T/C (dose: 2.5 mg/kg/injection, schedule: Q01DX009 (ip), vehicle: other): 100 % of control | T/C (dose: 2.5 mg/kg/injection, schedule: Q## X009 (ip), vehicle: lactic acid): 119 % of control | T/C (dose: 3.75 mg/kg/injection, schedule: Q01DX009 (ip), vehicle: other): 109 % of control | T/C (dose: 5.0 mg/kg/injection, schedule: Q01DX009 (ip), vehicle: other): 116 % of control | T/C (dose: 5.0 mg/kg/injection, schedule: Q## X009 (ip), vehicle: lactic acid): 113 % of control

N#Cc1ncc(C(Cl)Cl)nc1Cl
T/C (dose: 25.0 mg/kg/injection, schedule: Q01DX009 (ip), vehicle: saline): 108 % of control | T/C (dose: 50.0 mg/kg/injection, schedule: Q01DX009 (ip), vehicle: saline): 106 % of control

N=C(N)c1ccc2oc(/C=C/c3cc4ccc(C(=N)N)cc4o3)cc2c1
T/C (dose: 400.0 mg/kg/injection, schedule: Q04DX003 (ip), vehicle: suspension in saline): 150 % of control

NC(CCl)=NCC1C2CC3CC(C2)CC1C3 (configuration not stated)
T/C (dose: 7.5 mg/kg/injection, schedule: Q01DX005 (ip), vehicle: saline with Tween-80): 107 % of control and 116 % of control and 120 % of control | T/C (dose: 15.0 mg/kg/injection, schedule: Q01DX005 (ip), vehicle: saline with Tween-80): 122 % of control | T/C (dose: 30.0 mg/kg/injection, schedule: Q01DX005 (ip), vehicle: saline with Tween-80): 117 % of control

COc1ccc(-c2nnc3cc(C)n4nnnc4n23)cc1OC
T/C [1]: 100 % of control | T/C [2]: 96 % of control | T/C [3]: 94 % of control

CCC(/C=C/C1OC(=O)C=CC1C)=C\C(C)C/C=C/C(C)=C/C(C)C(=O)C(C)C(O)C(C)C/C(C)=C/C(=O)O (configuration not stated)
T/C (dose: 12.5 micrograms/kg/injection, schedule: Q01DX005 (ip), vehicle: saline + alcohol): 118 % of control | T/C (dose: 100.0 micrograms/kg/injection, schedule: Q01DX005 (ip), vehicle: saline + alcohol): 92 % of control

ClC(Cl)=C(Cl)C(Cl)=C(Cl)Cl
T/C (dose: 50.0 mg/kg/injection, schedule: Q01DX001 (ip), vehicle: saline): 108 % of control | T/C (dose: 100.0 mg/kg/injection, schedule: Q01DX001 (ip), vehicle: saline): 100 % of control

Nc1cc(Cl)ccc1[N+](=O)[O-]
T/C (dose: 100.0 mg/kg/injection, schedule: Q01DX009 (ip), vehicle: saline with Tween-80): 108 % of control | T/C (dose: 200.0 mg/kg/injection, schedule: Q01DX009 (ip), vehicle: saline with Tween-80): 99 % of control | T/C (dose: 400.0 mg/kg/injection, schedule: Q01DX009 (ip), vehicle: saline with Tween-80): 89 % of control

C[n+]1ccccc1/C=C/c1cccc([N+](=O)[O-])c1
T/C (dose: 5.0 mg/kg/injection, schedule: Q01DX009 (ip), vehicle: saline with Tween-80): 100 % of control | T/C (dose: 10.0 mg/kg/injection, schedule: Q01DX009 (ip), vehicle: saline with Tween-80): 109 % of control | T/C (dose: 20.0 mg/kg/injection, schedule: Q01DX009 (ip), vehicle: saline with Tween-80): 100 % of control

C1CCC2(CC1)SSC1(CCCCC1)S2
T/C (dose: 100.0 mg/kg/injection, schedule: Q04DX003 (ip), vehicle: other): 109 % of control | T/C (dose: 200.0 mg/kg/injection, schedule: Q04DX003 (ip), vehicle: other): 109 % of control | T/C (dose: 400.0 mg/kg/injection, schedule: Q04DX003 (ip), vehicle: other): 113 % of control

CC1=C(Sc2ccc(Br)cc2)C(N)Nc2nc(N)nc(N)c21 (configuration not stated)
T/C [4]: 89 % of control | T/C [5]: 89 % of control

NC(CCl)C(=O)O (configuration not stated)
T/C (dose: 50.0 mg/kg/injection, schedule: Q01DX005 (ip), vehicle: saline): 100 % of control | T/C (dose: 100.0 mg/kg/injection, schedule: Q01DX005 (ip), vehicle: saline): 100 % of control | T/C (dose: 200.0 mg/kg/injection, schedule: Q01DX005 (ip), vehicle: saline): 100 % of control

COc1ccc(CCN2CC(=O)N3CSCC3C2=O)cc1OC (configuration not stated)
T/C [4]: 100 % of control | T/C [5]: 95 % of control | T/C (dose: 240.0 mg/kg/injection, schedule: Q01DX005 (ip), vehicle: saline with Tween-80): 95 % of control

COC(=O)C1=C(O)C(C(=O)OC)C2C(C(=O)OC)=C(O)C(C(=O)OC)C12 (configuration not stated)
T/C [1]: 97 % of control | T/C [2]: 103 % of control | T/C [3]: 92 % of control
